Assay results: US9346770B2, “Compounds having activating effect on subtypes of peroxisome proliferator-activated receptors and its preparation method and uses” (ZHEJIANG HISUN PHARMACEUTICAL CO., LTD., priority 2010, dated 2016)
pEC50: −log10 of the molar value.

What was measured:
Assay type in all cases: cell-based
PPARα = PPARα (Homo sapiens (Human), UniProt Q07869); experiment: Nuclear receptor reporter gene (luciferase) screening model, PPARα activation in HepG2 cells; conditions: for Experiment results (relative activation fold) PPARα: HepG2, solvent control = 1; for pEC50: HepG2 reporter gene, 6 concentrations
PPARα, sequence (Q07869 whole entry, species assumed): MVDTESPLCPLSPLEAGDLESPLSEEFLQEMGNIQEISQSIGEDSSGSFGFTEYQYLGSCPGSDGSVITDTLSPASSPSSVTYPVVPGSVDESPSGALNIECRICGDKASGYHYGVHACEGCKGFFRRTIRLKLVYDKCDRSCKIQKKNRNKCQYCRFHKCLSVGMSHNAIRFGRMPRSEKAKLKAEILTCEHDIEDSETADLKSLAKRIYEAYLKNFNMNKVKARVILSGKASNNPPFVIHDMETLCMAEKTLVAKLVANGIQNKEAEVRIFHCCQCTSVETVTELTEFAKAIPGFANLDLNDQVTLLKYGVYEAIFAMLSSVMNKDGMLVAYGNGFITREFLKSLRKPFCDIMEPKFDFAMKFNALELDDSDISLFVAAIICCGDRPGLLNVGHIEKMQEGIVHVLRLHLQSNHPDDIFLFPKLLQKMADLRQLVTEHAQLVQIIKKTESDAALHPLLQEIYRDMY
PPARα, sequence (P19793 whole entry partner, species assumed): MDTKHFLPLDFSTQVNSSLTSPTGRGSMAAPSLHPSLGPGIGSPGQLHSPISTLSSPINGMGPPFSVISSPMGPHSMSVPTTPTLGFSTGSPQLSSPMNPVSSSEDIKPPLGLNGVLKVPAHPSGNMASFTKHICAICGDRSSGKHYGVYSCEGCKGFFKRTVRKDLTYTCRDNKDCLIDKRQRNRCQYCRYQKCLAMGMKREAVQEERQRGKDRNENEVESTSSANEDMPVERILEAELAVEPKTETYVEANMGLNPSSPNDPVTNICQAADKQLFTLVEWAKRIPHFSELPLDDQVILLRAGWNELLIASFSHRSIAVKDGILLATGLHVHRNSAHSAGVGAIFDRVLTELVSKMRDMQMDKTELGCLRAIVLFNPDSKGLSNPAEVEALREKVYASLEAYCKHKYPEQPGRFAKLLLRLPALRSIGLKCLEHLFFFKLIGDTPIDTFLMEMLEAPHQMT
Excerpt: (§1) Using a reporter gene method, a screening model for screening a nuclear receptor agonist in living cells is designed on the basis of the principal that a nuclear receptor can activate transcription of its downstream gene after being activated. A reporter gene plasmid is constructed, in which the DNA binding sequence for the nuclear receptor (NRE) is inserted at the upstream of a luciferase gene, such that the expression of the luciferase gene is regulated by the nuclear receptor. The reporter gene plasmid is transferred into a cell simultaneously with the nuclear receptor. The nuclear receptor will be activated when a nuclear receptor agonist presents in the cell culture medium. The receptor being activated can induce the expression of the luciferase gene, while the amount of generated luciferase can be determined with its luminescent substrate. In this way, the intensity of activation of the nuclear receptor by the compound can be determined by observing the luminescence intensity. For the calibration of the experimental error caused by factors such as transfection efficiency, amount of inoculated cells, toxicity of the compound, etc, a GFP plasmid is co-transfected simultaneously as the internal reference. In the analysis of the experimental results, the luminescent values tested for all wells are calibrated with GFP values. The experimental results are expressed as relative activation fold, with a value of 1 for the solvent control. The greater the fold is, the higher the activation capacity represents.
(§2) The detailed procedure is described as follows:
(§3) Hepatocarcinoma cell HepG2 (from ATCC, American Type Culture Collection) was cultured in a DMEM medium supplemented with 10% heat-inactivated fetal bovine serum (FBS, Invitogen, Grand Island, N.Y., USA) in a T-75 culture flask (Greiner, Germany) placed in a 5% CO2 incubator at 37° C. and 100% relative humidity.
(§4) On the next day, when the cells in the 96-well culture plate grew up to 50-80% confluency, cell transfection was performed. The cell co-transfection system comprised FuGene6 transfection agent (Roche Molecular Biochemicals, Indianapolis, Ind., U.S.A.) and 60 ng DNA (10 ng hRXR, 10 ng pCMV βGal, 10 ng nuclear receptor expression plasmid RXR/PPARα, δ, γ, 30 ng GFP fluorescence reporter gene plasmid, respectively).
(§5) The cell culture medium was discarded immediately after 24 hours of transfection and replaced by 200 μl fresh DMEM medium containing the test medicament (with 10% FBS treated by activated carbon). The final concentration gradients of the test medicament were 10 μM, 5 μM, 1 μM, 0.1 μM, 0.01 μM, 0.001 μM, and 0 μM. 0.05 μM 2-bromostearic acid (purchased from Sigma, USA) was used as the positive control. The final concentration of DMSO in each well was 0.1%.
(§6) After 24 h treatment with the medicament, the cells were lysed with a lysis solution (Cell Culture Lysis buffer, Promega) and centrifuged, and the supernatant was collected. The supernatant was reacted with a fluorescence assay kit (Promega) and counted by a fluorometer (Ascent Fluoroskan FL reader, Thermo Labsystems, Finland), and the relative intensity of luciferase was determined. For the assay of the β-galactosidase activity used in the experiment as the internal reference (the internal reference for calibrating the transfection efficiency), 50 μl of the supernatant was transferred into a fresh microplate, treated with a Promega kit, and the value was read with a microplate reader at a wavelength of 405 nm (Bio-tech Instruments Inc., Winooski, Vt., USA) (Sauerberg, P.; Olsen, G. S.; Jeppesen, L.; Mogensen, J. P. et al., J. Med. Chem., 2007, 50, 1495-1503).
(§7) In the present screening protocol, it was calculated according to the activation of the receptor by the sample at 6 different concentrations.
(§8) The concentration-activity profile of the effects of a compound was fitted by carrying out iterative computation according to the following formula, and corresponding EC50 was calculated: […]

PPARγ = PPARγ (Homo sapiens (Human), UniProt P37231); experiment: Nuclear receptor reporter gene (luciferase) screening model, PPARγ activation in HepG2 cells; conditions: for Experiment results (relative activation fold) PPARγ: HepG2, solvent control = 1; for pEC50: HepG2 reporter gene, 6 concentrations
PPARγ, sequence (P37231 whole entry, species assumed): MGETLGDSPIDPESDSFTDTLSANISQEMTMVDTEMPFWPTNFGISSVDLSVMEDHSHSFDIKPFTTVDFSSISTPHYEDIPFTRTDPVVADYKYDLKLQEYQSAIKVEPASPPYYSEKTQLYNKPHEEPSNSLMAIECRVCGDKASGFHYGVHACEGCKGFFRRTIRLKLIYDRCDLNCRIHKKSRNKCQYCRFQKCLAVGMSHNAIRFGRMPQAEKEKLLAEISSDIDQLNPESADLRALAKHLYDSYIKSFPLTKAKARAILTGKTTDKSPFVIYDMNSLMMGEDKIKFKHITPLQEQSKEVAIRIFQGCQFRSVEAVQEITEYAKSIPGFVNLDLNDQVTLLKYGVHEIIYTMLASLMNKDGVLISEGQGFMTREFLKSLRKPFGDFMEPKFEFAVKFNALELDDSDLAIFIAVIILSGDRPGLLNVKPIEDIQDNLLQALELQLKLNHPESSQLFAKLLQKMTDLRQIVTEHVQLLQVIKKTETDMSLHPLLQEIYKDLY
PPARγ, sequence (P19793 whole entry partner, species assumed): as the sequence (P19793 whole entry partner, species assumed) above
Excerpt: as §1, §2, §3, §4, §5, §6, §7, §8

PPARδ = PPARδ (Homo sapiens (Human), UniProt Q03181); experiment: Nuclear receptor reporter gene (luciferase) screening model, PPARδ activation in HepG2 cells; conditions: for Experiment results (relative activation fold) PPARδ: HepG2, solvent control = 1; for pEC50: HepG2 reporter gene, 6 concentrations
PPARδ, sequence (Q03181 whole entry, species assumed): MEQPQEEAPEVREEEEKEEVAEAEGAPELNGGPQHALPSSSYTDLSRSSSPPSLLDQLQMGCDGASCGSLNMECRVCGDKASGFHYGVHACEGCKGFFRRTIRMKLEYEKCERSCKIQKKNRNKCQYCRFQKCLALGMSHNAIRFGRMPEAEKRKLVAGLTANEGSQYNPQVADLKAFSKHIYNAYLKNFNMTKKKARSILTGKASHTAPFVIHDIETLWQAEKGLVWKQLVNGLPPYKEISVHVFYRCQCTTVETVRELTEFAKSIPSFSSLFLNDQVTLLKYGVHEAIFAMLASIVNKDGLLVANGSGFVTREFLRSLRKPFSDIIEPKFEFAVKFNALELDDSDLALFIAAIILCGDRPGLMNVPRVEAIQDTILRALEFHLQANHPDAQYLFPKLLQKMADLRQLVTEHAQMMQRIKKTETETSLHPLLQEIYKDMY
PPARδ, sequence (P19793 whole entry partner, species assumed): as the sequence (P19793 whole entry partner, species assumed) above
Excerpt: as §1, §2, §3, §4, §5, §6, §7, §8

| Structure (SMILES) | Experiment results (relative activation fold) PPARα (PPARα; 0.001 uM) [fold] | Experiment results (relative activation fold) PPARα (PPARα; 0.01 uM) [fold] | Experiment results (relative activation fold) PPARα (PPARα; 0.1 uM) [fold] | Experiment results (relative activation fold) PPARα (PPARα; 1 uM) [fold] | Experiment results (relative activation fold) PPARα (PPARα; 5 uM) [fold] | Experiment results (relative activation fold) PPARα (PPARα; 10 uM) [fold] | pEC50 (PPARα) | Experiment results (relative activation fold) PPARγ (PPARγ; 0.001 uM) [fold] | Experiment results (relative activation fold) PPARγ (PPARγ; 0.01 uM) [fold] | Experiment results (relative activation fold) PPARγ (PPARγ; 0.1 uM) [fold] | Experiment results (relative activation fold) PPARγ (PPARγ; 1 uM) [fold] | Experiment results (relative activation fold) PPARγ (PPARγ; 5 uM) [fold] | Experiment results (relative activation fold) PPARγ (PPARγ; 10 uM) [fold] | pEC50 (PPARγ) | Experiment results (relative activation fold) PPARδ (PPARδ; 0.001 uM) [fold] | Experiment results (relative activation fold) PPARδ (PPARδ; 0.01 uM) [fold] | Experiment results (relative activation fold) PPARδ (PPARδ; 0.1 uM) [fold] | Experiment results (relative activation fold) PPARδ (PPARδ; 1 uM) [fold] | Experiment results (relative activation fold) PPARδ (PPARδ; 5 uM) [fold] | Experiment results (relative activation fold) PPARδ (PPARδ; 10 uM) [fold] | other results |
| --- | --- | --- | --- | --- | --- | --- | --- | --- | --- | --- | --- | --- | --- | --- | --- | --- | --- | --- | --- | --- | --- |
| CCc1cc(OCCc2nc(-c3ccc(-c4nnn[nH]4)cc3)oc2C)ccc1CCC(=O)O [Compound 6] | 1.33 | 1.23 | 1.27 | 1.53 | 1.76 | 1.96 | 5.58 | 0.92 | 1.02 | 1.04 | 1.74 | 1.63 | 2.53 | 5.17 | 0.99 | 0.87 | 1.09 | 1.11 | 1.27 | 1.63 | pEC50 (PPARδ): 5.17 |
| CCc1cc(OCCc2coc(-c3ccc(C(F)(F)F)cc3)n2)ccc1CCC(=O)O [Compound 2] | 1.01 | 1.06 | 1.16 | 1.30 | 1.38 | 1.82 | 5.26 | 1.09 | 1.26 | 1.26 | 1.49 | 1.73 | 2.28 | 6.16 | 1.02 | 1.17 | 1.17 | 1.34 | 1.45 | 1.99 | pEC50 (PPARδ): > 9.00 |
| CCc1cc(OCCc2nc(-c3ccc([N+](=O)[O-])cc3)oc2C)ccc1CCC(=O)O [Compound 7] | 1.15 | 1.32 | 1.42 | 1.55 | 1.66 | 1.94 | 5.54 | 1.29 | 1.86 | 3.30 | 3.80 | 4.08 | 4.35 | 7.60 | 1.66 | 2.72 | 2.99 | 3.70 | 3.60 | 3.38 | pEC50 (PPARδ): 8.52 |
| CCc1cc(OCCc2nc(-c3ccc(C(N)=O)cc3)oc2C)ccc1CCC(=O)O [Compound 9] | 1.25 | 1.17 | 1.32 | 1.56 | 1.63 | 1.81 | 5.94 | 1.09 | 1.51 | 3.20 | 4.34 | 5.04 | 4.26 | 7.33 | 1.18 | 1.40 | 2.25 | 3.38 | 4.08 | 3.92 | pEC50 (PPARδ): 6.48 |

Now from value to compound, other results behind:

| Experiment results (relative activation fold) PPARα (PPARα; 0.001 uM) [fold] | Experiment results (relative activation fold) PPARα (PPARα; 0.01 uM) [fold] | Experiment results (relative activation fold) PPARα (PPARα; 0.1 uM) [fold] | Experiment results (relative activation fold) PPARα (PPARα; 1 uM) [fold] | Experiment results (relative activation fold) PPARα (PPARα; 5 uM) [fold] | Experiment results (relative activation fold) PPARα (PPARα; 10 uM) [fold] | pEC50 (PPARα) | Experiment results (relative activation fold) PPARγ (PPARγ; 0.001 uM) [fold] | Experiment results (relative activation fold) PPARγ (PPARγ; 0.01 uM) [fold] | Experiment results (relative activation fold) PPARγ (PPARγ; 0.1 uM) [fold] | Experiment results (relative activation fold) PPARγ (PPARγ; 1 uM) [fold] | Experiment results (relative activation fold) PPARγ (PPARγ; 5 uM) [fold] | Experiment results (relative activation fold) PPARγ (PPARγ; 10 uM) [fold] | pEC50 (PPARγ) | Experiment results (relative activation fold) PPARδ (PPARδ; 0.001 uM) [fold] | Experiment results (relative activation fold) PPARδ (PPARδ; 0.01 uM) [fold] | Experiment results (relative activation fold) PPARδ (PPARδ; 0.1 uM) [fold] | Experiment results (relative activation fold) PPARδ (PPARδ; 1 uM) [fold] | Experiment results (relative activation fold) PPARδ (PPARδ; 5 uM) [fold] | Experiment results (relative activation fold) PPARδ (PPARδ; 10 uM) [fold] | Structure (SMILES) | other results |
| --- | --- | --- | --- | --- | --- | --- | --- | --- | --- | --- | --- | --- | --- | --- | --- | --- | --- | --- | --- | --- | --- |
| 0.99 | 1.11 | 1.19 | 1.28 | 1.33 | 1.79 | 8.40 | 1.10 | 1.30 | 1.32 | 1.56 | 1.78 | 2.06 | 8.30 | 1.11 | 1.17 | 1.22 | 1.34 | 1.50 | 1.94 | CCc1cc(OCCc2nc(-c3ccc(C(F)(F)F)cc3)oc2C)ccc1CCC(=O)O [Compound 3] | activation effect on PPARα receptor (in words) (PPARα; screening results): better activation effects; activation effect on PPARγ receptor (in words) (PPARγ; screening results): better activation effects; pEC50 (PPARδ): > 9.00; activation effect on PPARδ receptor (in words) (PPARδ; screening results): better activation effects |
| 1.14 | 1.20 | 1.18 | 1.65 | 2.31 | 2.96 | 5.26 | 2.70 | 3.78 | 3.81 | 5.17 | 4.19 | 5.88 | 7.05 | 1.45 | 1.53 | 2.25 | 3.51 | 4.22 | 4.60 | CCc1cc(OCCc2nc(-c3ccc(C(C)(C)C)cc3)oc2C)ccc1CCC(=O)O [Compound 4] | pEC50 (PPARδ): 6.07 |
